In ChEMBL document CHEMBL1123967, “New potent antagonists of leukotrienes C4 and D4. 1. Synthesis and structure-activity relationships” (J Med Chem, 1988) one finds IC50 data, which are given here for 60 compounds.

The target in the experiment is T1, Cysteinyl leukotriene receptor (Homo sapiens, UniProt Q9Y271+Q9NS75).
T1 sequence (Q9Y271 whole entry): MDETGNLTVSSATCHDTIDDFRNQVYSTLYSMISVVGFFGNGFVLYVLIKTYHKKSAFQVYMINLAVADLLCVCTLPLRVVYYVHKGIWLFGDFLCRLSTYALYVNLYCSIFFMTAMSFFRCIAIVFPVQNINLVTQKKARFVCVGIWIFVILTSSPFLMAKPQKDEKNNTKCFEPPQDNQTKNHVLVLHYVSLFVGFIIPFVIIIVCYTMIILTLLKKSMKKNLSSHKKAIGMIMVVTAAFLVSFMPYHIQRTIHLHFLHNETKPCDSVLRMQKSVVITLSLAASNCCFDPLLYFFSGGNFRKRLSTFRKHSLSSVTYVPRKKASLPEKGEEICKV
T1 sequence (Q9NS75 whole entry): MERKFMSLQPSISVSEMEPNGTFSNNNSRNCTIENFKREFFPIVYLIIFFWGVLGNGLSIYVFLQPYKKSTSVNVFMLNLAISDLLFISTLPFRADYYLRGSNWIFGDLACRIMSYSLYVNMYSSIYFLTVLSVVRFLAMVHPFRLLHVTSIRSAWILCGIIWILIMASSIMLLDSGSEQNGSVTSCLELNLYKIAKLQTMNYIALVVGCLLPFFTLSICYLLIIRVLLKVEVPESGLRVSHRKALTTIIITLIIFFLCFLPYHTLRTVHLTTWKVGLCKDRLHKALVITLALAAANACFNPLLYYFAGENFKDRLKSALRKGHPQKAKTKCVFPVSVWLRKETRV
The experiment is described as follows: Inhibition of LTC4 induced smooth muscle contraction of guinea pig ileum. Particulars: target entry is the homologue from another species. The format is functional, tissue-based, Cavia porcellus.

For orientation: IC50 means the concentration that gives 50% inhibition. `CCCCCc1ccc(/C=C/C(=O)Nc2ccccc2CC(=O)O)cc1`: the IC50 was found to be 20000 nM. To `CCCCCCc1ccc(/C=C/C(=O)Nc2cccc3c(=O)cc(-c4nn[nH]n4)oc23)cc1` belongs 32 nM; to `CCCCCOc1ccccc1C(=O)Nc1cccc2c1OC(c1nnn[nH]1)CO2` (stereo not given), 9400 nM. Compound `CCCCCCCc1ccc(C(=O)Nc2cccc3c(=O)cc(-c4nn[nH]n4)oc23)cc1` yielded an IC50 of 4.2 nM. To `CCCCCc1ccc(C(=O)Nc2cccc3c(=O)cc(-c4nn[nH]n4)oc23)cc1` belongs 180 nM. The figure for `CCCCCCCOc1ccc(/C=C/C(=O)Nc2cccc3c(=O)cc(-c4nn[nH]n4)oc23)cc1` is 140 nM; for `CCC/C=C/COc1ccc(C(=O)Nc2cccc3c(=O)cc(-c4nn[nH]n4)oc23)cc1` it is 1.5 nM; for `CCCCCCCOc1ccc(C(=O)Nc2cccc3c(=O)cc(-c4nn[nH]n4)oc23)cc1` it is 0.5 nM. For `CCCCCCCCCCc1ccc(/C=C/C(=O)Nc2cccc3c2OC(c2nnn[nH]2)CO3)cc1` (stereo not given), the IC50 is on record as 1100 nM. `CCCCc1ccc(/C=C/C(=O)Nc2cccc3c2OC(c2nnn[nH]2)CO3)cc1` (stereo not given) displayed an IC50 of 220 nM.

`CCCCCOc1cccc(C(=O)Nc2cccc3c2OC(c2nnn[nH]2)CO3)c1` (stereo not given) gave a concentration for half-maximal inhibition (IC50) of 5000 nM. The figure for `CCCCOc1ccc(/C=C/C(=O)Nc2cccc3c2OC(c2nnn[nH]2)CO3)cc1` (stereo not given) is 120 nM; for `CCCCCCOc1ccc(C(=O)Nc2cccc3c(=O)cc(-c4nn[nH]n4)oc23)cc1` it is 0.86 nM; for `CCCCCCCCCCOc1ccc(C(=O)Nc2cccc3c2OC(c2nnn[nH]2)CO3)cc1` (stereo not given) it is 300 nM. The figure for `CCCCCCCOc1ccc(/C=C/C(=O)Nc2cccc3c2OC(c2nnn[nH]2)CO3)cc1` (stereo not given) is 88 nM. The figure for `CCCCCOc1ccc(C(=O)Nc2cccc3c(=O)cc(-c4nn[nH]n4)oc23)cc1` is 53 nM; for `CCCCCOc1ccccc1/C=C/C(=O)Nc1cccc2c1OC(c1nnn[nH]1)CO2` (stereo not given) it is 2300 nM; for `CCCCCCCCCCc1ccc(C(=O)Nc2cccc3c2OC(c2nnn[nH]2)CO3)cc1` (stereo not given) it is 500 nM. Compound `CCCCCc1ccc(/C=C/C(=O)Nc2cccc3ccc(-c4nn[nH]n4)cc23)cc1` gave an IC50 of 300 nM. Turning to `CCCCCCOc1ccc(/C=C/C(=O)Nc2cccc3c(=O)cc(-c4nn[nH]n4)oc23)cc1`, the IC50 was found to be 18 nM. For `CCCCCCCCCOc1ccc(C(=O)Nc2cccc3c2OC(c2nnn[nH]2)CO3)cc1` (stereo not given), the IC50 was determined as 20 nM.

`CCCCCc1ccc(/C=C/C(=O)Nc2cccc3cc(-c4nn[nH]n4)oc23)cc1`: the 50% inhibitory concentration (IC50) turned out to be 3100 nM. To `CCCCCCCCCc1ccc(/C=C/C(=O)Nc2cccc3c2OC(c2nnn[nH]2)CO3)cc1` (stereo not given) belongs 3200 nM; to `CCCCCOc1ccc(C(=O)Nc2cccc3c2OC(c2nnn[nH]2)CO3)cc1` (stereo not given), 100 nM.

As for `CCCCCc1ccc(/C=C/C(=O)Nc2cccc3c2OC(c2nnn[nH]2)C3)cc1` (stereo not given), the IC50 is 6900 nM. The compound `CCCCCCc1ccc(C(=O)Nc2cccc3c2OC(c2nnn[nH]2)CO3)cc1` (stereo not given) yielded an IC50 of 210 nM. To `CCCCCCc1ccc(/C=C/C(=O)Nc2cccc3c2OC(c2nnn[nH]2)CO3)cc1` (stereo not given) belongs 140 nM. To `CCCCCCOc1ccc(/C=C/C(=O)Nc2cccc3c2OC(c2nnn[nH]2)CO3)cc1` (stereo not given) belongs 21 nM. The figure for `CCCCOc1ccc(C(=O)Nc2cccc3c2OC(c2nnn[nH]2)CO3)cc1` (stereo not given) is 220 nM.

Turning to `CCCCCOc1cccc(/C=C/C(=O)Nc2cccc3c2OC(c2nnn[nH]2)CO3)c1` (stereo not given), the IC50 is recorded as 150 nM.

Compound `CCCCCCCCOc1ccc(/C=C/C(=O)Nc2cccc3c2OC(c2nnn[nH]2)CO3)cc1` (stereo not given) came in with an IC50 of 215 nM. `CCCCCOc1ccc(/C=C/C(=O)Nc2cccc3c2OC(c2nnn[nH]2)CO3)cc1` (stereo not given) returned an IC50 of 120 nM. The figure for `CCCCCCCCCc1ccc(C(=O)Nc2cccc3c2OC(c2nnn[nH]2)CO3)cc1` (stereo not given) is 160 nM; for `CCCCCCCc1ccc(/C=C/C(=O)Nc2cccc3c2OC(c2nnn[nH]2)CO3)cc1` (stereo not given) it is 350 nM. On to `CCCOc1ccc(C(=O)Nc2cccc3c2OC(c2nnn[nH]2)CO3)cc1` (stereo not given), for which the IC50 was found to be 2200 nM. To `CCCCCCCCCc1ccc(C(=O)Nc2cccc3c(=O)cc(-c4nn[nH]n4)oc23)cc1` belongs 7 nM; to `CC/C=C/COc1ccc(C(=O)Nc2cccc3c2OC(c2nnn[nH]2)CO3)cc1` (stereo not given), 150 nM. To `CCCCCCCCOc1ccc(C(=O)Nc2cccc3c(=O)cc(-c4nn[nH]n4)oc23)cc1` belongs 5.5 nM; to `O=C(Nc1cccc2c1OC(c1nnn[nH]1)CO2)c1ccc(OCCc2ccccc2)cc1` (stereo not given), 62 nM; to `CCCCCCCc1ccc(C(=O)Nc2cccc3c2OC(c2nnn[nH]2)CO3)cc1` (stereo not given), 70 nM. To `CCCCCCOc1ccc(C(=O)Nc2cccc3c2OC(c2nnn[nH]2)CO3)cc1` (stereo not given) belongs 13 nM. For the compound `CCCCc1ccc(C(=O)Nc2cccc3c2OC(c2nnn[nH]2)CO3)cc1` (stereo not given), the IC50 is on record as 1500 nM.

`CCCCCc1ccc(C(=O)Nc2cccc3c2OC(c2nnn[nH]2)CO3)cc1` (stereo not given) returned an IC50 of 2600 nM. As to `CCCCCCCc1ccc(/C=C/C(=O)Nc2cccc3c(=O)cc(-c4nn[nH]n4)oc23)cc1`, the IC50 is 100 nM. In the case of `CCCCCc1ccccc1C(=O)Nc1cccc2c1OC(c1nnn[nH]1)CO2` (stereo not given), the IC50 was 40000 nM. `CCCCCCCCc1ccc(/C=C/C(=O)Nc2cccc3c2OC(c2nnn[nH]2)CO3)cc1` (stereo not given) registered an IC50 of 580 nM.

In turn, `CCCc1ccc(/C=C/C(=O)Nc2cccc3c2OC(c2nnn[nH]2)CO3)cc1` (stereo not given) displayed an IC50 of 490 nM. To `CCCCCCCCCOc1ccc(C(=O)Nc2cccc3c(=O)cc(-c4nn[nH]n4)oc23)cc1` belongs 7.4 nM. On to `CCCCCCCCc1ccc(C(=O)Nc2cccc3c2OC(c2nnn[nH]2)CO3)cc1` (stereo not given), for which the IC50 is given as 100 nM.

Consider `O=C(Nc1cccc2c(=O)cc(-c3nn[nH]n3)oc12)c1ccc(OCCCc2ccccc2)cc1`, for which the IC50 stood at 0.96 nM. The figure for `O=C(Nc1cccc2c1OC(c1nnn[nH]1)CO2)c1ccc(OCCCc2ccccc2)cc1` (stereo not given) is 20 nM; for `CCCCOc1ccc(C(=O)Nc2cccc3c(=O)cc(-c4nn[nH]n4)oc23)cc1` it is 5 nM; for `CCCCCCCCc1ccc(C(=O)Nc2cccc3c(=O)cc(-c4nn[nH]n4)oc23)cc1` it is 5.5 nM. The compound `CCCCCCc1ccc(C(=O)Nc2cccc3c(=O)cc(-c4nn[nH]n4)oc23)cc1` returned an IC50 of 15 nM. In turn, `CCCCCCCCOc1ccc(C(=O)Nc2cccc3c2OC(c2nnn[nH]2)CO3)cc1` (stereo not given) displayed an IC50 of 14 nM.

Compound `CCCCc1ccc(/C=C/C(=O)Nc2cccc3c(=O)cc(-c4nn[nH]n4)oc23)cc1` gave an IC50 of 34 nM.

Take `CCCCCc1ccccc1/C=C/C(=O)Nc1cccc2c1OC(c1nnn[nH]1)CO2` (stereo not given): the IC50 came to 2150 nM. The figure for `CCCOc1ccc(/C=C/C(=O)Nc2cccc3c2OC(c2nnn[nH]2)CO3)cc1` (stereo not given) is 660 nM.

Regarding `CCCCCc1ccc(/C=C/C(=O)Nc2cccc3ccc(-c4nn[nH]n4)nc23)cc1`, the IC50 was 1000 nM.

In the case of `O=C(Nc1cccc2c1OC(c1nnn[nH]1)CO2)c1ccc(OCCCCCc2ccccc2)cc1` (stereo not given), the IC50 is recorded as 11 nM.
